Measurements taken from PMC12974487, “Inhibition of FicD-mediated AMPylation and deAMPylation by isoprenoid diphosphates” (Proceedings of the National Academy of Sciences of the …, 2026).
“Also recorded” adds a separate entry of the source.

What was measured:
AvrB = AvrB (Pseudomonas savastanoi pv. glycinea, UniProt P13835); experiment: Rhamnosylation of GST-Rin4 by AvrB; assay type: biochemical, Pseudomonas syringae
Protocol: Finally, we explored the inhibitory effects of GPP/FPP on other Fido proteins to see if these metabolites could serve as generic inhibitors of Fido domains. To test this specificity, we performed in vitro activity assays with GPP/FPP and two constitutively active Fido proteins from bacteria: VopS from Vibrio parahaemolyticus ([25]) and AvrB from Pseudomonas syringae ([30]).
(250mM Tris pH 6.8, 10% Sodium dodecyl sulfate, 50% glycerol, 50mM DTT, 0.05% Bromophenol blue) and heated at 98°C for 5 minutes.
Rhamnosylation assays were performed as previously described (2). Briefly, AvrB and GST-Rin4 were combined in the presence of GPP or FPP, where applicable. Reactions were started by the addition of UDP-Rhamnose at a final concentration of […] and reactions were incubated for 1 hour at room temperature. Reactions were stopped by the addition of 5X SDS sample buffer […]
Equal volumes of samples suspended in 5X SDS sample buffer were resolved on hand-cast 10% 1.5mm Tris-Glycine gels with the BioRad Mini-PROTEAN Tetra Cell system. […]
Intact mass analysis of proteins was performed by the UT Southwestern Proteomics Core. Intact protein samples were analyzed by LC/MS, using a Sciex X500B QTOF mass spectrometer operating in positive ion mode, coupled to an Agilent 1290 Infinity II HPLC. […]

FicD^WT = target: T1, FicD^WT (Homo sapiens, UniProt Q9BVA6); experiment: In vitro AMPylation of Δ26hBiP^T229A by FicD^WT (Western blot); assay type: biochemical; settings: for inhibition of AMPylation of Δ26hBiP^T229A by FicD^WT: 100 μM metabolite, 500 μM ATP, 5 mM MgCl2; for concentration at which inhibition of AMPylation started: dose-response Western blot, FicD^WT
T1 construct: soluble ER luminal domain (residues 105 to 458) of wild-type human FicD; 6xHis-Sumo (N, cleaved yes); made in house; host or cells: Rosetta(DE3) E. coli
T1 sequence (Q9BVA6 105-458): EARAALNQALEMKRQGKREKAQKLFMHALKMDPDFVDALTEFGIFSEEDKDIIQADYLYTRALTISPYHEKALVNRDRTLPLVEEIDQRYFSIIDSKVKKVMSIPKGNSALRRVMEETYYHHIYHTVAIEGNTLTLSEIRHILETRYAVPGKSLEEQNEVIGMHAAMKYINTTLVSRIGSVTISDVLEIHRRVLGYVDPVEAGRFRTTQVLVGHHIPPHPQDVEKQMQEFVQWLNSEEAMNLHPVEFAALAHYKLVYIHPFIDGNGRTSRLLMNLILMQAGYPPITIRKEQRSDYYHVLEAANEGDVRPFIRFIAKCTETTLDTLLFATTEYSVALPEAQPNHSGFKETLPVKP
Source text: We next sought to assess the effects of FPP, GPP, and isoprenoid analogues on FicD activity. To accurately judge the effects of small molecules on FicD AMPylation activity, we used the ATPase defective BiP^T229A mutant as substrate ([22], [49], [50]). Loss of ATP hydrolysis by the BiP mutant ensures: 1. conformational homogeneity of the BiP protein substrate; 2. lack of BiP competition for the ATP substrate; and 3. no production of ADP, a competitive inhibitor for ATP. In addition, we deleted the first 25 amino acids of BiP for ease with its purification and solubility. […]
For AMPylation assays with FicD and BiP, Δ104FicDWT and Δ26hBiPT229A were combined at a ratio
of 1:80 in buffer containing 25mM HEPES pH 7.4, 100mM KCl, 5mM MgCl2, 500μM ATP, 1mM
DTT, and small molecule where indicated. Assays with Δ104FicDWT were incubated for 1 hour.
the amount of FicD as in reactions containing FicDWT and were incubated at 37C for 4.5 hours. […]

Chain of AvrB (P13835 whole entry, the tested form may be a part): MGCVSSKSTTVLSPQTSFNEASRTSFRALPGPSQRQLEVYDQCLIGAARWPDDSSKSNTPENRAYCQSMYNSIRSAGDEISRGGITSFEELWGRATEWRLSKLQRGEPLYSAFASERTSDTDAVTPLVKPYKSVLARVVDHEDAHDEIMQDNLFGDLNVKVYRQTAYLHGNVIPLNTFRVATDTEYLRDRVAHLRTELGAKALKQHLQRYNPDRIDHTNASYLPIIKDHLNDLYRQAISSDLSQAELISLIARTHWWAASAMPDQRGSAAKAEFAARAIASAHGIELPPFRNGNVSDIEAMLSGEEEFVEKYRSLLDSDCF

Row | SMILES | effect on rhamnosylation activity of AvrB (AvrB) | inhibition of AMPylation of Δ26hBiP^T229A by FicD^WT (FicD^WT) | concentration at which inhibition of AMPylation started (FicD^WT) [µM] | apparent EC50 of inhibition of AMPylation (FicD^WT; substrate exceeds FPP by two to three orders of magnitude)
1 | CC(C)=CCC/C(C)=C/CC/C(C)=C/COP(=O)(O)OP(=O)(O)O [FPP, farnesyl-pyrophosphate] | Neither GPP nor FPP affected; also recorded: not inhibited | inhibited | 5 | low micromolar range
2 | CC(C)=CCC/C(C)=C/COP(=O)(O)OP(=O)(O)O [GPP, geranyl-pyrophosphate] | Neither GPP nor FPP affected | inhibited | 20 | 
